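Grown in 96-well plates, cells were treated for 48 hours with each compound at five concentrations. Insufficient inhibition: endpoint recorded as highest concentration tested. TGI denotes the concentration required for complete inhibition of growth.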
Assays:
Test in all cases: DTP human tumour cell line panel, 48 h
SF-268 CNS = tested on: SF-268 CNS
RPMI-8226 leukemia = tested on: RPMI-8226 leukemia
PC-3 prostate = tested on: PC-3 prostate
OVCAR-8 ovarian = tested on: OVCAR-8 ovarian
SN12C renal = tested on: SN12C renal
NCI-H23 lung = tested on: NCI-H23 lung
LOX IMVI melanoma = tested on: LOX IMVI melanoma
A549 NSCLC = tested on: A549 NSCLC
NCI-H522 lung = tested on: NCI-H522 lung
MCF7 breast = tested on: MCF7 breast
SK-MEL-28 melanoma = tested on: SK-MEL-28 melanoma
M19-MEL melanoma = tested on: M19-MEL melanoma
SK-MEL-2 melanoma = tested on: SK-MEL-2 melanoma
CCRF-CEM leukemia = tested on: CCRF-CEM leukemia
SNB-19 CNS = tested on: SNB-19 CNS
MDA-N = tested on: MDA-N
A498 renal = tested on: A498 renal
NCI/ADR-RES ovarian = tested on: NCI/ADR-RES ovarian
SW-620 colon = tested on: SW-620 colon
UACC-257 melanoma = tested on: UACC-257 melanoma
786-0 renal = tested on: 786-0 renal
RXF 393 renal = tested on: RXF 393 renal
COLO 205 colon = tested on: COLO 205 colon
T-47D breast = tested on: T-47D breast
HCT-116 colon = tested on: HCT-116 colon
HOP-92 NSCLC = tested on: HOP-92 NSCLC
DLD-1 colon = tested on: DLD-1 colon
TK-10 renal = tested on: TK-10 renal
HOP-18 NSCLC = tested on: HOP-18 NSCLC
SNB-78 CNS = tested on: SNB-78 CNS
M14 melanoma = tested on: M14 melanoma
OVCAR-5 ovarian = tested on: OVCAR-5 ovarian
EKVX NSCLC = tested on: EKVX NSCLC
MALME-3M melanoma = tested on: MALME-3M melanoma
HT29 colon = tested on: HT29 colon
UACC-62 melanoma = tested on: UACC-62 melanoma
XF 498 CNS = tested on: XF 498 CNS
MDA-MB-435 = tested on: MDA-MB-435
SF-539 CNS = tested on: SF-539 CNS
BT-549 breast = tested on: BT-549 breast
MDA-MB-231 breast = tested on: MDA-MB-231 breast
MOLT-4 leukemia = tested on: MOLT-4 leukemia
IGROV1 ovarian = tested on: IGROV1 ovarian
HCC-2998 colon = tested on: HCC-2998 colon
CAKI-1 renal = tested on: CAKI-1 renal
DMS 273 small cell lung = tested on: DMS 273 small cell lung
HS 578T breast = tested on: HS 578T breast
U251 CNS = tested on: U251 CNS
SR leukemia = tested on: SR leukemia
KM12 colon = tested on: KM12 colon
HL-60(TB) leukemia = tested on: HL-60(TB) leukemia
NCI-H226 lung = tested on: NCI-H226 lung
SK-OV-3 ovarian = tested on: SK-OV-3 ovarian
SNB-75 CNS = tested on: SNB-75 CNS
NCI-H460 lung = tested on: NCI-H460 lung
DU-145 prostate = tested on: DU-145 prostate
HCT-15 colon = tested on: HCT-15 colon
K-562 leukemia = tested on: K-562 leukemia
UO-31 renal = tested on: UO-31 renal
HOP-62 NSCLC = tested on: HOP-62 NSCLC
LXFL 529 NSCLC = tested on: LXFL 529 NSCLC
ACHN renal = tested on: ACHN renal
OVCAR-4 ovarian = tested on: OVCAR-4 ovarian
SK-MEL-5 melanoma = tested on: SK-MEL-5 melanoma
OVCAR-3 ovarian = tested on: OVCAR-3 ovarian
SF-295 CNS = tested on: SF-295 CNS

O=C1C(c2ccc([N+](=O)[O-])cc2)=C(Cl)C(=O)c2c(O)cccc21
TGI (SF-268 CNS): 49.8 µM | TGI (RPMI-8226 leukemia): > 100 µM | TGI (PC-3 prostate): 57.3 µM | TGI (OVCAR-8 ovarian): > 86.4 µM | TGI (SN12C renal): 39.9 µM | TGI (NCI-H23 lung): 36.6 µM | TGI (LOX IMVI melanoma): 32.6 µM | TGI (A549 NSCLC): > 100 µM | TGI (NCI-H522 lung): 21.6 µM | TGI (MCF7 breast): 37.7 µM | TGI (SK-MEL-28 melanoma): 33.9 µM | TGI (M19-MEL melanoma): 36 µM | TGI (SK-MEL-2 melanoma): 34.3 µM | TGI (CCRF-CEM leukemia): > 100 µM | TGI (SNB-19 CNS): 49.6 µM | TGI (MDA-N): 34.5 µM | TGI (A498 renal): 59.3 µM | TGI (NCI/ADR-RES ovarian): 66.2 µM | TGI (SW-620 colon): 15.5 µM | TGI (UACC-257 melanoma): 32.9 µM | TGI (786-0 renal): 28.9 µM | TGI (RXF 393 renal): 29.1 µM | TGI (COLO 205 colon): 32.4 µM | TGI (T-47D breast): 52.6 µM | TGI (HCT-116 colon): > 56.6 µM | TGI (HOP-92 NSCLC): 33 µM | TGI (DLD-1 colon): 25.3 µM | TGI (TK-10 renal): 34.7 µM | TGI (HOP-18 NSCLC): 19.6 µM | TGI (SNB-78 CNS): 63.8 µM | TGI (M14 melanoma): 46.5 µM | TGI (OVCAR-5 ovarian): > 100 µM | TGI (EKVX NSCLC): 46.6 µM | TGI (MALME-3M melanoma): 34.8 µM | TGI (HT29 colon): 43.5 µM | TGI (UACC-62 melanoma): 35.6 µM | TGI (XF 498 CNS): 22.4 µM | TGI (MDA-MB-435): 31.9 µM | TGI (SF-539 CNS): 39.6 µM | TGI (BT-549 breast): 32.1 µM | TGI (MDA-MB-231 breast): 31.8 µM | TGI (MOLT-4 leukemia): > 100 µM | TGI (IGROV1 ovarian): 42.4 µM | TGI (HCC-2998 colon): > 100 µM | TGI (CAKI-1 renal): 50.2 µM | TGI (DMS 273 small cell lung): > 100 µM | TGI (HS 578T breast): 65.9 µM | TGI (U251 CNS): 32.6 µM | TGI (SR leukemia): > 100 µM | TGI (KM12 colon): > 62.6 µM | TGI (HL-60(TB) leukemia): > 100 µM | TGI (NCI-H226 lung): > 59.3 µM | TGI (SK-OV-3 ovarian): > 100 µM | TGI (SNB-75 CNS): 96.9 µM | TGI (NCI-H460 lung): > 100 µM | TGI (DU-145 prostate): 42.7 µM | TGI (HCT-15 colon): 54 µM | TGI (K-562 leukemia): > 100 µM | TGI (UO-31 renal): 19.1 µM | TGI (HOP-62 NSCLC): > 100 µM | TGI (LXFL 529 NSCLC): 23.2 µM | TGI (ACHN renal): 33 µM | TGI (OVCAR-4 ovarian): 32.1 µM | TGI (SK-MEL-5 melanoma): > 54.8 µM | TGI (OVCAR-3 ovarian): 32.6 µM | TGI (SF-295 CNS): 98.9 µM
